# According to US12435044B2, “Pyridazinone herbicides and pyridazinone intermediates used to prepare a herbicide” (FMC Corporation, priority 2018, dated 2025):
# Columns and labels:
# Assay in all cases: Test G preemergence, mixtures of Cpd. No. 20 with (b15C1)
# Format in all cases: in vivo
# [1] = test system: barnyardgrass (ECHCG; Echinochloa crus-galli)
# Excerpt: (§1) This test evaluated the effect of mixtures of Cpd. No. 20 with (b15C1) on several plant species. Seeds of plant species selected from corn (ZEAMD; Zea mays, cv. ‘Pioneer 1184’), soybean (GLXMA; Glycine max, cv. Pioneer 35T58), giant foxtail (SETFA; Setaria faberi), barnyardgrass (ECHCG; Echinochloa crus-galli), large crabgrass (DIGSA; Digitaria sanguinalis), palmer amaranth (AMAPA; Amaranthus palmeri), common waterhemp (AMATU; Amaranthus rudis), and common ragweed (AMBEL; Ambrosia artemisiifolia) were planted in pots containing Tama Silt Loam soil and treated preemergence with a directed soil spray using test chemicals formulated in a non-phytotoxic solvent mixture which included a surfactant.
# (§2) Treated plants and untreated controls were maintained in a greenhouse for approximately 21 d, after which time all treated plants were compared to untreated controls and visually evaluated for injury. Plant response ratings, summarized in Table G, are based on a 0 to 100 scale where 0 is no effect and 100 is complete control. A dash (-) response means no test result. Test results are presented as a mean of 4 reps.
# [2] = test system: giant foxtail (SETFA; Setaria faberi)
# Excerpt: as §1, §2
# [3] = test system: corn (ZEAMD; Zea mays, cv. ‘Pioneer 1184’)
# Excerpt: as §1, §2
# [4] = test system: palmer amaranth (AMAPA; Amaranthus palmeri)
# Excerpt: as §1, §2
# [5] = test system: large crabgrass (DIGSA; Digitaria sanguinalis)
# Excerpt: as §1, §2
# [6] = test system: soybean (GLXMA; Glycine max, cv. Pioneer 35T58)
# Excerpt: as §1, §2
# [7] = test system: common waterhemp (AMATU; Amaranthus rudis)
# Excerpt: as §1, §2
# [8] = test system: common ragweed (AMBEL; Ambrosia artemisiifolia)
# Excerpt: as §1, §2
compound,measurement,setting,value
"FC(F)c1cc(-c2c(Cl)cccc2Oc2ncc(Cl)cn2)on1 [(b15C1), 5-chloro-2-[3-chloro-2-[3-(difluoromethyl)-5-isoxazolyl]phenoxy]-pyrimidine, reference compound]",Plant response rating (0 to 100 scale),[1]; (b15C1) 8 g a.i./ha alone,0
same,Plant response rating (0 to 100 scale),[1]; (b15C1) 16 g a.i./ha alone,0
same,Plant response rating (0 to 100 scale),[1]; (b15C1) 31 g a.i./ha alone,35
same,Plant response rating (0 to 100 scale),[2]; (b15C1) 8 g a.i./ha alone,5
same,Plant response rating (0 to 100 scale),[2]; (b15C1) 16 g a.i./ha alone,34
same,Plant response rating (0 to 100 scale),[2]; (b15C1) 31 g a.i./ha alone,74
same,Plant response rating (0 to 100 scale),[3]; (b15C1) 8 g a.i./ha alone,0
same,Plant response rating (0 to 100 scale),[3]; (b15C1) 16 g a.i./ha alone,0
same,Plant response rating (0 to 100 scale),[3]; (b15C1) 31 g a.i./ha alone,0
same,Plant response rating (0 to 100 scale),[4]; (b15C1) 8 g a.i./ha alone,60
same,Plant response rating (0 to 100 scale),[4]; (b15C1) 16 g a.i./ha alone,88
same,Plant response rating (0 to 100 scale),[4]; (b15C1) 31 g a.i./ha alone,97
same,Plant response rating (0 to 100 scale),[5]; (b15C1) 8 g a.i./ha alone,54
same,Plant response rating (0 to 100 scale),[5]; (b15C1) 16 g a.i./ha alone,90
same,Plant response rating (0 to 100 scale),[5]; (b15C1) 31 g a.i./ha alone,100
same,Plant response rating (0 to 100 scale),[6]; (b15C1) 8 g a.i./ha alone,0
same,Plant response rating (0 to 100 scale),[6]; (b15C1) 16 g a.i./ha alone,0
same,Plant response rating (0 to 100 scale),[6]; (b15C1) 31 g a.i./ha alone,0
same,Plant response rating (0 to 100 scale),[7]; (b15C1) 8 g a.i./ha alone,0
same,Plant response rating (0 to 100 scale),[7]; (b15C1) 16 g a.i./ha alone,0
same,Plant response rating (0 to 100 scale),[7]; (b15C1) 31 g a.i./ha alone,20
same,Plant response rating (0 to 100 scale),[8]; (b15C1) 8 g a.i./ha alone,54
same,Plant response rating (0 to 100 scale),[8]; (b15C1) 16 g a.i./ha alone,90
same,Plant response rating (0 to 100 scale),[8]; (b15C1) 31 g a.i./ha alone,100
